Laboratory results as given in patent US11505592B2, “Diagnosis and therapy of multiple sclerosis” (PRINDEX S.R.L., priority 2015, dated 2022).

Legend:
MS IgG = experiment: Indirect ELISA of MS IgG binding to receptor peptides; design: species or system human; settings: 100 μM peptide; 200 μg immunoglobulins
Procedure: FIG. 6: Dose-response curves of the interaction between MS sera and DDSK peptide. (A) Sera of Multiple Sclerosis patients and Control (control group is defined in material and method below) (200 μg) were incubated with different concentrations (50-100-250 μM) of peptide DDSK. For the detection, inventors used a secondary antibody anti human IgG conjugated with HRP and (3,3′,5,5′-Tetramethylbenzidine) TMB solution that was added for each well and incubated for 15-30 min. Equal volume of stopping solution (2 M H2SO4) was added to the plate and absorbance (optical density) of plate was read at 450 nm. The statistical analysis derived from 9 experiments. Values are mean±SEM. *P<0.05 MS vs CTRL (B) Linear representation of dose-response curve Values are mean±SEM. *P<0.05 MS vs CTRL.
FIGS. 7A, 7B, 7C and 7D: MS sera recognize specially receptor's peptides. […] Equal volume of stopping solution (2 M H2SO4) was added to the plate and absorbance (optical density) of plate was read at 450 nm. […]
A. Sera of Multiple Sclerosis patients and Control (200 μg) were incubated in absence (uncoated) or presence of 100 μM of DDSK peptide. […] Equal volume of stopping solution (2 M H2SO4) was added to the plate and absorbance (optical density) of plate was read at 450 nm. […]
Diluted peptide (20 μg/ml) was coated to the wells of a PVC microtiter plate and incubated at 4° C. overnight. […] For the detection, we used a secondary antibody anti human (recognized constant region of the patient antibody conjugated with HRP and (3,3′,5,5′-Tetramethylbenzidine) TMB solution that was added for each well and incubated for 15-30 min. Equal volume of stopping solution (2 M H2SO4) was added to the plate and absorbance (optical density) of plate was read at 450 nm.
To evaluate the peptide concentration to use for ELISA assay we performed a dose-response curve. […] (named DDSK in the figures) and the absorbance (optical density) of plate was read at 450 nm. […]

MS sera = experiment: PEPSCAN-based ELISA, binding of MS sera to library peptides; design: species or system human; settings: ELISA binding value, MS sera n = 9
From the text: (§1) The linear and CLIPS peptides are synthesized based on the amino acid sequence of the target protein using standard Fmoc-chemistry and deprotected using […] with scavengers. The constrained peptides are synthesized on chemical scaffolds in order to reconstruct conformational epitopes, using Chemically Linked Peptides on Scaffolds (CLIPS) technology (Timmerman et al. (2007). For example, the single looped peptides are synthesized containing a dicysteine, which was cyclized by treating with alpha, alpha′-dibromoxylene and the size of the loop is varied by introducing cysteine residues at variable spacing. If other cysteines besides the newly introduced cysteines are present, they are replaced by alanine. The side-chains of the multiple cysteines in the peptides are coupled to CLIPS templates by reacting onto credit-card format polypropylene PEPSCAN cards (455 peptide formats/card) with a 0.5 mM solution of CLIPS template such as 1,3-bis (bromomethyl) benzene in ammonium bicarbonate (20 mM, pH 7.9)/acetonitrile (1:1(v/v)). The cards are gently shaken in the solution for 30 to 60 minutes while completely covered in solution. Finally, the cards are washed extensively with excess of H2O and sonicated in distrupt-buffer containing 1 percent SDS/0.1 percent beta-mercaptoethanol in PBS (pH 7.2) at 70° C. for 30 minutes, followed by sonication in H2O for another 45 minutes.
(§2) The binding of antibody to each peptide is tested in a PEPSCAN-based ELISA. The 455-well credit card format polypropylene cards containing the covalently linked peptides are incubated with primary antibody solution for example consisting of 1/1000 diluted serum in blocking solution, for example 4% horse serum, 5% ovalbumin (w/v) in PBS/1% Tween. After washing, the peptides are incubated with a 1/1000 dilution of antibody peroxidase conjugate for one hour at 25° C. After washing, the peroxidase substrate 2,2′-azino-di-3-ethylbenzthiazoline sulfonate (ABTS) and 2 microlitres of 3 percent H2O2 are added. After one hour, the color development are measured. The color development are quantified with a charge coupled device (CCD)-camera and an image processing system (Slootstra et al., 1996).
(§3) The raw data are optical values obtained by a CCD-camera calibrated to export absorption values compatible with a standard 96-well plate ELISA-reader. First the CCD-camera makes a picture of the card before peroxidase coloring and then again a picture after the peroxidase coloring. These two pictures are substracted from each other yielding a binding value for each peptide.
(§4) All peptides have been synthesized in a peptide array format and the binding of 20 different sera to all peptide libraries were measured in an ELISA based set up following the procedure described in detail in the method section “Peptide synthesis and screening assays”. In particular 2 sets of experiments were performed on the 2 libraries by using 2 different dilutions of the human patients sera. In the first set of experiment the 20 sera were used at 1:2500 dilutions, while in the second experiment the dilution of the sera was 1:1000. The binding of the different sera to all peptides was quantified and analyzed in detail (Tables 1 and 2, FIGS. 15A, B, C, D and […]

CTRL sera = experiment: PEPSCAN-based ELISA, binding of control (CTRL) sera to library peptides; design: species or system human; settings: ELISA binding value, CTRLs n = 10
From the text: as §1, §2, §3, §4

MO3-13 cells = experiment: Determination of reactive oxygen species (DCF fluorescence) in MO3-13 cells; format: cell-based, human; settings: 50 μM peptide 30 min, then 200 μg/ml IgG MS 30 min
Procedure: (§5) FIG. 10A: DDSK peptide reverts the effects of Ig from MS patients on ROS levels in MO3-13 cells. MO3-13 cells were grown to semi-confluence in 24 multiwell plates and incubated for 18 h in medium containing 0.2% FBS. The cells were washed twice with FBS free medium, incubated with 50 μM of DDSK for 30 min and then with 200 μg/ml of IgG from Control (IgGCtr) or MS (IgGMS) patients for 30 min. Then, the cells were incubated with 10 μM DCHF-DA for 10 min, washed three times and DCF fluorescence was measured using a plate reader fluorometer. The histograms show the mean+/−SEM values obtained in 5 different experiments from 7 control and 7 MS subjects. # p<0.05 vs IgGCtr; *p<0.05 vs IgGMS.
as §5, with “MO3-13” for “FIG. 10A: DDSK peptide reverts the effects of Ig from MS patients on ROS levels in MO3-13 cells. MO3-13”, “Scrambled peptide (Sc)” for “DDSK”, “obtained” for “obtained in 5 different experiments”, “3” for “7”, “subjects.” for “subjects. # p<0.05 vs IgGCtr;”, “IgGCtr.” for “IgGMS.”
ROS levels were determined using the membrane-permeant fluorogenic probe 5,6-carboxy-2′,7′-dichlorofluoresceindiacetate, DCHFDA (Molecular Probes, Leiden, the Netherlands). The assay was based on the fluorescence detection of dichlorofluorescein (DCF), formed by ROS-mediated oxidation of the non-fluorescent precursor, dichlorofluorescin.
MO3-13 cells were grown to semi-confluence in 24 multiwell plates (45000 cell/well) and incubated for 18 h in medium containing 0.2% FBS before the experiments. […] DCF fluorescence was measured using the plate reader Fluoroskan Ascent FL fluorometer (Thermo Electron Oy, Vantaa, Finland) and data analyzed by Ascent software.

| Sequence | MEAN MS (MS sera; NOX2 library) | MEAN CTRL (CTRL sera; NOX2 library) | other results |
| --- | --- | --- | --- |
| LYGYRWPLPSKL | – | – | binding of MS IgG to peptide respect to scrambled (MS IgG): bind specifically |
| NESYLNFARKRIKNP [SEQ ID NO: 109] | 602.889 | 333.75 | – |
| NFARKRIKN [SEQ ID NO: 58] | 613.833 | 288.95 | – |
| NFARKRIKNPAAGLY [SEQ ID NO: 77] | 604.167 | 323.85 | – |
| NITVCEQKISAAGKI [SEQ ID NO: 96] | 564.500 | 314.2 | – |
| QDDSKVFKEGAALLA [Peptide 33] | – | – | MEAN MS (MS sera; 5HT2A receptor library): 439.11; MEAN CTRL (CTRL sera; 5HT2A receptor library): 263.70 |
| QKISEWGKI [SEQ ID NO: 146] | 508.333 | 298.2 | – |
| QKISEWGKIKAAPIP [SEQ ID NO: 88] | 701.889 | 364.3 | – |
| QNESYLNFARAAIKN [SEQ ID NO: 113] | 421.722 | 244 | – |
| QNESYLNFARKRIKN [SEQ ID NO: 63] | 610.778 | 309.65 | – |
| RQNESYLNFARKRIK [SEQ ID NO: 76] | 458.833 | 241.2 | – |
| STTNSLMQLNAATRL [Peptide 31] | – | – | MEAN MS (MS sera; 5HT2A receptor library): 611.83; MEAN CTRL (CTRL sera; 5HT2A receptor library): 385.15 |
| SYLNFARKRIAAPEG [SEQ ID NO: 71] | 472.000 | 259.75 | – |
| TILYGYRWPLPSKLC [Peptide 29] | – | – | MEAN MS (MS sera; 5HT2A receptor library): 651.50; MEAN CTRL (CTRL sera; 5HT2A receptor library): 378.20 |
| TVCEQKISEWGKIKE [SEQ ID NO: 94] | 514.944 | 289.4 | – |
| TVDSENRTNLAAEGC [Peptide 23] | – | – | MEAN MS (MS sera; 5HT2A receptor library): 587.33; MEAN CTRL (CTRL sera; 5HT2A receptor library): 348.10 |
| TWYAHNCRLQ [Scrambled peptides, scrambled peptide used as negative control, reference compound] | – | – | effect of peptide preincubation on ROS levels of IgG MS treated cells (MO3-13 cells): did not influence |
| VNARVNNSDPAAVAL [SEQ ID NO: 118] | 426.444 | 219.15 | – |
| WCVNARVNNSDPYSV [SEQ ID NO: 121] | 283.889 | 163.8 | – |
| WGKIKECPI [SEQ ID NO: 116] | 501.389 | 303.25 | – |
| YLNFARKRI [SEQ ID NO: 140] | 601.667 | 345.85 | – |
| YLNFARKRIKAAEGG [SEQ ID NO: 119] | 299.167 | 181.3 | – |
| YRWPLPSKL [Peptide 5] | – | – | MEAN MS (MS sera; 5HT2A receptor library): 566.00; MEAN CTRL (CTRL sera; 5HT2A receptor library): 285.70 |
